Assay results published in patent publication US11505543B2, “4-oxo-3,4-dihydroquinazoline compounds as inhibitors of human immunodeficiency virus replication” (VIIV HEALTHCARE UK (NO.5) LIMITED, priority 2018, dated 2022).
pEC50: −log10 of the molar value.

Legend:
[1] = system: uninfected MT2 cells; assay: Compound cytotoxicity, XTT-based colorimetric assay; format: cell-based; conditions: day 4, XTT
In short: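 Run under the antiviral-assay protocol but without virus. Viability was read on day 4 and CC50 values were derived from the readout.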

[2] = system: recombinant NL4-3 virus (nef section replaced with Renilla luciferase gene) in MT-2 cells; assay: HIV cell culture assay (antiviral activity, luciferase readout); format: cell-based; conditions: serial dilutions of compound
In short: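 Test compound in serial dilution was present while MT-2 cells were infected for 4–5 days with recombinant NL4-3 virus made in 293T cells. Antiviral activity was quantified as Renilla luciferase activity, read with a live-cell substrate. EC50 came from the median-effect equation.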

[3] = MT-2 cells infected for 4-5 days with recombinant NL4-3 Renilla luciferase virus
[4] = Renilla, NL43, MT-2 cells infected for 4-5 days with recombinant NL4-3 Renilla luciferase virus

SMILES | CC50 [1] | pEC50 [2, 3] | pEC50 [2, 4]
O=C(Cn1nc(C(F)F)c2c1C(F)(F)[C@@H]1C[C@H]21)N[C@@H](Cc1cc(F)cc(F)c1)c1nc2cc(-c3ccccc3F)ccc2c(=O)n1-c1ccc(Cl)c2c(NS(=O)(=O)C3CC3)nn(CC(F)F)c12 (atropisomer, axis not shown; (aR)) [Example 8, N-((S)-1-(3-(4-chloro-3-(cyclopropanesulfonamido)-1-(2,2-difluoroethyl)-1H-indazol-7-yl)-7-(2-fluorophenyl)-4-oxo-3,4-dihydroquinazolin-2-yl)-2-(3,5-difluorophenyl)ethyl)-2-((3bS,4aR)-3-(difluoromethyl)-5,5-difluoro-3b,4,4a,5-tetrahydro-1H-cyclopropa[3,4]cyclopenta[1,2-c]pyrazol-1-yl)acetamide] | > 1000 nM | 9.21 | –
O=C(Cn1nc(C(F)F)c2c1C(F)(F)[C@@H]1C[C@H]21)N[C@@H](Cc1cc(F)cc(F)c1)c1nc2cc(-c3ccccc3F)ccc2c(=O)n1-c1ccc(Cl)c2c(NS(=O)(=O)C3CC3)nn(CC(F)F)c12 (atropisomer, axis not shown; (aR)) [Example 115, N-((S)-1-(3-(4-chloro-3-(cyclopropanesulfonamido)-1-(2,2-difluoroethyl)-1H-indazol-7-yl)-7-(2-fluorophenyl)-4-oxo-3,4-dihydroquinazolin-2-yl)-2-(3,5-difluorophenyl)ethyl)-2-((3bS,4aR)-3-(difluoromethyl)-5,5-difluoro-3b,4,4a,5-tetrahydro-1H-cyclopropa[3,4]cyclopenta[1,2-c]pyrazol-1-yl)acetamide] | > 10000 nM | – | 9.33
Cn1nc(NS(C)(=O)=O)c2c(Cl)ccc(-n3c([C@H](Cc4cc(F)cc(F)c4)NC(=O)Cn4ccc(C5CC5)n4)nc4cc(-c5ccccc5F)ccc4c3=O)c21 (single isomer, unassigned) [Example 4] | > 1000 nM | 8.96 | –
Cn1nc(NS(C)(=O)=O)c2c(Cl)ccc(-n3c([C@H](Cc4cc(F)cc(F)c4)NC(=O)Cn4nc(C(F)F)c5c4C(F)(F)[C@@H]4C[C@H]54)nc4cc(-c5ccccc5F)ccc4c3=O)c21 (single isomer, unassigned) [Example 5] | > 1000 nM | – | 7.20
Cn1nc(NS(C)(=O)=O)c2c(Cl)ccc(-n3c([C@H](Cc4cc(F)cc(F)c4)NC(=O)Cn4nc(C(F)F)c5c4C(F)(F)[C@@H]4C[C@H]54)nc4cc(-c5ccccc5F)ccc4c3=O)c21 (single isomer, unassigned) [Example 6] | > 1000 nM | 9.52 | –
CC(C(=O)N[C@@H](Cc1cc(F)cc(F)c1)c1nc2cc(-c3ccccc3F)ccc2c(=O)n1-c1ccc(Cl)c2c(NS(=O)(=O)C3CC3)nn(CC(F)F)c12)n1ccc(C2CC2)n1 (single isomer, unassigned) [Example 138] | > 500 nM | 8.05 | –
